We go through three compounds from patent publication US20230355501A1, “COSMETIC COMPOSITION” (AJINOMOTO CO., INC., priority 2021, published 2023).

Each structure is given as a SMILES string.

A short description of the data set: Melting point of PHC compositions by differential scanning calorimeter. To be noted: DSC7000X, approx. 2 mg, nitrogen atmosphere, from 25° C. at 5° C./min. Format: physicochemical. The method, then: PHCs in a mixing ratio shown in Table 2 were mixed in a mortar, to prepare each sample.
Each sample in an amount of approximately 2 mg was heated under a nitrogen atmosphere using a differential scanning calorimeter DSC7000X (Hitachi High-Tech Science Corporation) with the temperature raised from 25° C. at a rate of 5° C./min. The temperature at the intersection of the base line and the inflection point of endothermic peak was taken as the melting point of the sample.
`CCCCCCCCCCCCCCCCCC(=O)NC(CO)C(O)C(O)CCCCCCCCCCCC` (stereo not drawn) [Sample 11, C18:0-PHS16:0] displayed a Melting point of 122.0 °C. For `CCCCCCCCCCCCCCCCCC(=O)NC(CO)C(O)C(O)CCCCCCCCCCCCCC` (stereo not drawn) [Sample 12, C18:0-PHS18:0], the Melting point is 124.2 °C. The figure for `CCCCCCCCCCCCCCCCCC(=O)NC(CO)C(O)C(O)CCCCCCCCCCCCCCCC` (stereo not drawn) [Sample 13, C18:0-PHS20:0] is 126.2 °C.
